{
  "source": "patent US20220079925A1",
  "about": "“COMPOSITIONS COMPRISING TACROLIMUS FOR THE TREATMENT OF INTRAOCULAR INFLAMMATORY EYE DISEASES” (NOVALIQ GMBH, priority 2016, published 2022)",
  "origin": "cited, not measured here",
  "key": {"T-lymphocyte": {"system": "T-lymphocyte", "details": "inhibiting T-lymphocyte signal transduction and cell proliferation"}, "[1]": {"details": "topical administration"}},
  "data": [
    {"smiles": "C=CC[C@@H]1/C=C(\\C)C[C@H](C)C[C@H](OC)[C@H]2O[C@@](O)(C(=O)C(=O)N3CCCC[C@H]3C(=O)O[C@H](/C(C)=C/[C@@H]3CC[C@@H](O)[C@H](OC)C3)[C@H](C)[C@@H](O)CC1=O)[C@H](C)C[C@@H]2OC", "note": "[Tacrolimus]", "values": [
      {"measurement": "potency relative to cyclosporine", "setting": "T-lymphocyte", "value": 100, "unit": "times"},
      {"measurement": "ability to penetrate tissue barrier", "setting": "[1]", "value": "poor"}
    ]}
  ]
}
